Several values for one entry are separate records, joined by “and”; a condition that tells them apart may be missing. Identical values can stand only once.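 Five compound concentrations were applied to cells in 96-well plates for 48 hours; endpoints were derived by simple linear interpolation of the resulting dose-response curve. The concentration for 50% growth inhibition is given as GI50. TGI denotes the concentration required for complete inhibition of growth.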
What was measured:
Assay in all cases: NCI-60 cell line screen, 48 h
U251 CNS = tested on: U251 CNS
HCT-15 colon = tested on: HCT-15 colon
K-562 leukemia = tested on: K-562 leukemia
NCI-H522 lung = tested on: NCI-H522 lung
SK-MEL-28 melanoma = tested on: SK-MEL-28 melanoma
SF-539 CNS = tested on: SF-539 CNS
SN12C renal = tested on: SN12C renal
LOX IMVI melanoma = tested on: LOX IMVI melanoma
SK-MEL-2 melanoma = tested on: SK-MEL-2 melanoma
HS 578T breast = tested on: HS 578T breast

| Structure (SMILES) | GI50 (U251 CNS) | TGI (U251 CNS) | GI50 (HCT-15 colon) | TGI (HCT-15 colon) | GI50 (K-562 leukemia) | TGI (K-562 leukemia) | GI50 (NCI-H522 lung) | TGI (NCI-H522 lung) | GI50 (SK-MEL-28 melanoma) | TGI (SK-MEL-28 melanoma) | GI50 (SF-539 CNS) | TGI (SF-539 CNS) | GI50 (SN12C renal) | TGI (SN12C renal) | GI50 (LOX IMVI melanoma) | TGI (LOX IMVI melanoma) | GI50 (SK-MEL-2 melanoma) | TGI (SK-MEL-2 melanoma) | GI50 (HS 578T breast) | TGI (HS 578T breast) |
| --- | --- | --- | --- | --- | --- | --- | --- | --- | --- | --- | --- | --- | --- | --- | --- | --- | --- | --- | --- | --- |
| CCc1ccc(Oc2c(-c3ccc(OCc4ccc(Cl)cc4)cc3O)nn(C)c2C(F)(F)F)cc1 | 0.357 µM | 1.36 µM | 0.365 µM | 1.45 µM | 0.39 µM | 1.58 µM | 0.303 µM | 1.94 µM | 1.26 µM | 2.91 µM | 1.77 µM | 3.75 µM | 1.04 µM | 2.48 µM | 0.416 µM | 1.51 µM | 1.02 µM | 2.63 µM | 1.5 µM | 4.92 µM |
| COc1cc([C@@H]2c3cc4c(cc3[C@H](SC(=N)N)[C@H]3COC(=O)[C@H]23)OCO4)cc(OC)c1OC | 0.311 µM | > 100 µM | 0.321 µM | > 100 µM | 0.14 µM | > 100 µM | 0.125 µM | – | 14.4 µM | > 100 µM | 0.144 µM | > 100 µM | 0.621 µM | > 100 µM | 0.0799 µM | > 100 µM | 5.78 µM | > 100 µM | 0.264 µM | > 100 µM |
| CC[n+]1c(-c2ccccc2)c2cc(N)ccc2c2ccc(N)cc21 | 0.399 µM | 10.2 µM and 20.7 µM | 39.6 µM | > 100 µM | 1.75 µM | 30.1 µM and 50.5 µM and 35.3 µM | – | 2.54 µM and 8.58 µM and 23.2 µM | 0.607 µM | 2.12 µM and 8.02 µM | 0.763 µM | 4.4 µM and 6.43 µM and 6.19 µM | 0.306 µM | 12 µM and 19.7 µM and 7.37 µM | 2.31 µM and 3.12 µM and 7.53 µM | 13.7 µM and 21.2 µM and 34.7 µM | 1.11 µM | 3.8 µM and 6.55 µM | – | 5.86 µM |
| O=c1[nH]c(=S)[nH]c(O)c1/C=C1\C=Nc2ccccc21 | 2.11 µM | 5.87 µM | 2.78 µM | 8.07 µM | 8.04 µM | > 100 µM | 16.9 µM | 54.4 µM | 6.69 µM | 48.3 µM | 3.11 µM | 9.87 µM | 7.95 µM | 59.4 µM | 2.46 µM | 11.1 µM | 19.5 µM | 59 µM | 1.95 µM | 6.19 µM |
| O=C1Nc2ccc(-c3cccnc3)cc2/C1=C/c1cc(Br)c(O)c(Br)c1 | 6.11 µM | > 25 µM | 6.8 µM | > 25 µM | 9.07 µM | > 25 µM | 4.38 µM | 13.7 µM | 4.89 µM | 14.6 µM | 5.15 µM | > 22.4 µM | 9.12 µM | > 25 µM | 4.99 µM | > 25 µM | 3.11 µM | 6.85 µM | 5.67 µM | > 22 µM |
| CN(C)CCNC(=O)Nc1ccc(N(C)c2ccnc(Nc3ccc(CS(C)(=O)=O)cc3)n2)cc1 | > 25 µM | > 25 µM | > 25 µM | > 25 µM | > 25 µM | > 25 µM | > 16.9 µM | > 25 µM | > 25 µM | > 25 µM | > 20.9 µM | > 25 µM | > 25 µM | > 25 µM | > 25 µM | > 25 µM | > 25 µM | > 25 µM | > 19.8 µM | > 25 µM |
| COc1ccc(N(CC(=O)O)N=O)cc1 | – | > 100 µM | – | > 100 µM | – | > 100 µM | – | > 100 µM | – | > 100 µM | – | > 100 µM | – | > 100 µM | – | > 100 µM | – | > 100 µM | – | > 100 µM |
| CN(C)CCCOc1ccc(NC2=C(Cl)C(=O)C(Nc3ccc(OCCCN(C)C)cc3)=C(Cl)C2=O)cc1 | 1.53 µM | 2.94 µM | 0.411 µM | 0.958 µM | 0.276 µM | 0.798 µM | 0.236 µM | 0.602 µM | 1.74 µM | 3.16 µM | 1.79 µM | 3.19 µM | 0.548 µM | 1.05 µM | 0.422 µM | 0.902 µM | 1.66 µM | 3.31 µM | 1.59 µM | 4.2 µM |
| OCc1ccc(-c2ccc(-c3ccc(CO)o3)o2)o1 | 39.1 µM | > 100 µM | > 100 µM | > 100 µM | > 100 µM | > 100 µM | > 100 µM | > 100 µM | > 100 µM | > 100 µM | > 100 µM | > 100 µM | > 100 µM | > 100 µM | > 100 µM | > 100 µM | 38.8 µM | 97.1 µM | > 31.2 µM | > 62.6 µM |
| CCOC(=O)[C@@H](C)C[C@H](Cc1ccccc1)NC(=O)c1csc([C@@H](C[C@H](C(C)C)N(C)C(=O)CNC(=O)[C@H]2CCCCN2C)OC(C)=O)n1 | 1 µM | > 14.3 µM | 1.49 µM | > 14.3 µM | 0.358 µM | > 14.3 µM | 0.463 µM | > 3.79 µM | 1.52 µM | > 14.3 µM | 1.74 µM | 5.46 µM | 2.18 µM | > 14.3 µM | 2.14 µM | > 14.3 µM | 0.69 µM | > 14.3 µM | 1.5 µM | > 8.43 µM |

— PubChem BioAssay (NCI)
